# Laboratory results from patent US20210038587A1, “METHODS AND COMPOSITIONS FOR TREATING NON-ERK MAPK PATHWAY INHIBITOR-RESISTANT CANCERS” (BIOMED VALLEY DISCOVERIES, INC., priority 2013, published 2021).
# Columns and labels:
# [1] = system: A375, MIAPaCa-2, HCT116, Colo205, HT-29, and AN3Ca cells; assay: Reverse Phase Protein Analysis (RPPA), all six cell lines; assay type: cell-based; details: 10 μM, 6 hours
# Protocol: (§1) Control wells were treated with DMSO at 0.1% (v/v) for 6 hours prior to cell lysate generation. Samples were then analyzed using reverse-phase protein microarray technology (Theranostics Health).
# (§2) Cell lines with common alterations in BRAF and RAS were assayed: BRAF^V600E mutant lines A375, Colo205, and HT29; KRAS^G12C-mutant cell line MIAPACa-2; KRAS^G13D-mutant cell line HCT116; and AN3Ca with atypical HRAS^F82L mutation. Changes in protein levels are shown as a percentage change from dimethyl sulfoxide (DMSO)-treated parental control (FIG. 32A and Table 23).
# AN3Ca = assay: Reverse Phase Protein Analysis (RPPA); assay type: cell-based; details: % change from DMSO (matched cell line)
# Protocol: as §1, §2
# HT29 = assay: Reverse Phase Protein Analysis (RPPA); assay type: cell-based; details: % change from DMSO (matched cell line)
# Protocol: as §1, §2
# A375 = assay: Reverse Phase Protein Analysis (RPPA); assay type: cell-based, human; details: % change from DMSO (matched cell line)
# Protocol: as §1, §2
# HCT116 = assay: Reverse Phase Protein Analysis (RPPA); assay type: cell-based, human; details: % change from DMSO (matched cell line)
# Protocol: as §1, §2
smiles,measurement,setting,value
Cn1nccc1Nc1nccc(-c2ccn([C@H](CO)c3ccc(Cl)c(F)c3)c(=O)c2)n1 [GDC-0994],"pERK1/2 (ERK1/2-T202, -Y204)",[1],markedly increased pERK1/2
same,survival marker pBAD,[1],only modest inhibition of pBAD
same,Avg (4ebp1 T70),AN3Ca,11.28%
same,Avg (Akt S473),AN3Ca,82.37%
same,Avg (Akt),AN3Ca,−26.04%
same,Avg (Bad S136),AN3Ca,0.71%
same,Avg (Bad S155),AN3Ca,17.31%
same,Avg (Bak),AN3Ca,7.33%
same,Avg (Bax),AN3Ca,23.83%
same,Avg (Bcl 2),AN3Ca,7.8%
same,Avg (Bcl2 S70),AN3Ca,−0.65%
same,Avg (Bcl 2 T56),AN3Ca,1.23%
same,Avg (Bim),AN3Ca,−11.63%
same,Avg (CREB S133),AN3Ca,5.03%
same,Avg (Caspase 3 CL D175),AN3Ca,1.55%
same,Avg (Caspase 7 Cl D198),AN3Ca,−15.56%
same,Avg (Chk1),AN3Ca,9.43%
same,Avg (Chk1 S345),AN3Ca,15.46%
same,Avg (Cyclin D1),AN3Ca,0.34%
same,Avg (ERK 1 2),AN3Ca,−2.87%
same,Avg (ERK 1 2 T202 Y204),AN3Ca,645.51%
same,Avg (MAK1 S360),AN3Ca,6.84%
same,Avg (Mcl1),AN3Ca,−4.16%
same,Avg (Raptor S792),AN3Ca,4.85%
same,Avg (Raptor),AN3Ca,−8.05%
same,Avg (Rictor),AN3Ca,−9.21%
same,Avg (Stat1),AN3Ca,9.15%
same,Avg (Stat3),AN3Ca,−13.05%
same,Avg (bad S112),AN3Ca,2.53%
same,Avg (c Fos),AN3Ca,−0.63%
same,Avg (c Myc),AN3Ca,3.99%
same,Avg (mTOR S2448),AN3Ca,−2.96%
same,Avg (mTOR S2481),AN3Ca,25.42%
same,Avg (mTOR),AN3Ca,−2.85%
same,Avg (p70 S6 Kinase),AN3Ca,−3.67%
same,Avg (p90 RSK S380),AN3Ca,−29.44%
same,Avg(S6 Ribo Prot S235 236),AN3Ca,−30.74%
same,Avg(S6 Ribo Prot S240 244),AN3Ca,−23.47%
same,Avg(Tuberin TSC2 Y1571),AN3Ca,25.18%
same,Avg(p70 S6 Kinase S371 S394),AN3Ca,29.09%
same,Avg(p70 S6 Kinase T389 T412),AN3Ca,26.01%
same,Avg (4ebp1 T70),HT29,1.95%
same,Avg (Akt S473),HT29,−10.5%
same,Avg (Akt),HT29,−10.01%
same,Avg (Bad S136),HT29,2%
same,Avg (Bad S155),HT29,−6.7%
same,Avg (Bak),HT29,3.56%
same,Avg (Bax),HT29,1.1%
same,Avg (Bcl 2),HT29,18.16%
same,Avg (Bcl2 S70),HT29,10.59%
same,Avg (Bcl 2 T56),HT29,1.61%
same,Avg (Bim),HT29,7.74%
same,Avg (CREB S133),HT29,9.54%
same,Avg (Caspase 3 CL D175),HT29,−3.44%
same,Avg (Caspase 7 Cl D198),HT29,−0.88%
same,Avg (Chk1),HT29,5.68%
same,Avg (Chk1 S345),HT29,6.88%
same,Avg (Cyclin D1),HT29,−35.69%
same,Avg (ERK 1 2),HT29,4.66%
same,Avg (ERK 1 2 T202 Y204),HT29,268.99%
same,Avg (MAK1 S360),HT29,−0.04%
same,Avg (Mcl1),HT29,3.71%
same,Avg (Raptor S792),HT29,−1.75%
same,Avg (Raptor),HT29,−6.85%
same,Avg (Rictor),HT29,−10.62%
same,Avg (Stat1),HT29,2.58%
same,Avg (Stat3),HT29,−3.69%
same,Avg (bad S112),HT29,−12.98%
same,Avg (c Fos),HT29,−12.92%
same,Avg (c Myc),HT29,7.56%
same,Avg (mTOR S2448),HT29,−11.44%
same,Avg (mTOR S2481),HT29,3.23%
same,Avg (mTOR),HT29,10.45%
same,Avg (p70 S6 Kinase),HT29,−2.83%
same,Avg (p90 RSK S380),HT29,−30.59%
same,Avg(S6 Ribo Prot S235 236),HT29,−41.45%
same,Avg(S6 Ribo Prot S240 244),HT29,−21.74%
same,Avg(Tuberin TSC2 Y1571),HT29,11.86%
same,Avg(p70 S6 Kinase S371 S394),HT29,−25.73%
same,Avg(p70 S6 Kinase T389 T412),HT29,−20.86%
same,Avg (4ebp1 T70),A375,−29.47%
same,Avg (Akt S473),A375,53.66%
same,Avg (Akt),A375,−20.7%
same,Avg (Bad S136),A375,−6.21%
same,Avg (Bad S155),A375,−13.31%
same,Avg (Bak),A375,2.76%
same,Avg (Bax),A375,3.97%
same,Avg (Bcl 2),A375,−3.13%
same,Avg (Bcl2 S70),A375,6.3%
same,Avg (Bcl 2 T56),A375,−4.1%
same,Avg (Bim),A375,9.8%
same,Avg (CREB S133),A375,−1.18%
same,Avg (Caspase 3 CL D175),A375,−16.74%
same,Avg (Caspase 7 Cl D198),A375,−5.53%
same,Avg (Chk1),A375,−7.72%
same,Avg (Chk1 S345),A375,−18.35%
same,Avg (Cyclin D1),A375,−81.65%
same,Avg (ERK 1 2),A375,31.55%
same,Avg (ERK 1 2 T202 Y204),A375,142.37%
same,Avg (MAK1 S360),A375,−5.21%
same,Avg (Mcl1),A375,−9.09%
same,Avg (Raptor S792),A375,−15.93%
same,Avg (Raptor),A375,−14.32%
same,Avg (Rictor),A375,−23.29%
same,Avg (Stat1),A375,−5.67%
same,Avg (Stat3),A375,14.24%
same,Avg (bad S112),A375,−55.32%
same,Avg (c Fos),A375,−12.46%
same,Avg (c Myc),A375,−9.11%
same,Avg (mTOR S2448),A375,−23.61%
same,Avg (mTOR S2481),A375,−19.37%
same,Avg (mTOR),A375,−6.2%
same,Avg (p70 S6 Kinase),A375,−18.11%
same,Avg (p90 RSK S380),A375,−60.74%
same,Avg(S6 Ribo Prot S235 236),A375,−87.61%
same,Avg(S6 Ribo Prot S240 244),A375,−80.3%
same,Avg(Tuberin TSC2 Y1571),A375,−16.74%
same,Avg(p70 S6 Kinase S371 S394),A375,−17.34%
same,Avg(p70 S6 Kinase T389 T412),A375,−31.9%
same,Avg (4ebp1 T70),HCT116,20.5%
same,Avg (Akt S473),HCT116,4.69%
same,Avg (Akt),HCT116,−6.13%
same,Avg (Bad S136),HCT116,−1.24%
same,Avg (Bad S155),HCT116,−19.71%
same,Avg (Bak),HCT116,−1.74%
same,Avg (Bax),HCT116,−20.11%
same,Avg (Bcl 2),HCT116,−4.56%
same,Avg (Bcl2 S70),HCT116,−12.53%
same,Avg (Bcl 2 T56),HCT116,−11.96%
same,Avg (Bim),HCT116,6.2%
same,Avg (CREB S133),HCT116,−8.56%
same,Avg (Caspase 3 CL D175),HCT116,−8.36%
same,Avg (Caspase 7 Cl D198),HCT116,−13.99%
same,Avg (Chk1),HCT116,2.28%
same,Avg (Chk1 S345),HCT116,−18.77%
same,Avg (Cyclin D1),HCT116,−63.59%
same,Avg (ERK 1 2),HCT116,−1.9%
same,Avg (ERK 1 2 T202 Y204),HCT116,526.64%
same,Avg (MAK1 S360),HCT116,−12.93%
same,Avg (Mcl1),HCT116,−4.77%
same,Avg (Raptor S792),HCT116,−15.77%
same,Avg (Raptor),HCT116,−6.2%
same,Avg (Rictor),HCT116,−10.98%
same,Avg (Stat1),HCT116,−6.32%
same,Avg (Stat3),HCT116,−0.25%
same,Avg (bad S112),HCT116,−12.36%
same,Avg (c Fos),HCT116,−10.36%
same,Avg (c Myc),HCT116,−12.03%
same,Avg (mTOR S2448),HCT116,−19.33%
same,Avg (mTOR S2481),HCT116,−18.34%
same,Avg (mTOR),HCT116,−4.85%
same,Avg (p70 S6 Kinase),HCT116,−9.9%
same,Avg (p90 RSK S380),HCT116,−22.25%
same,Avg(S6 Ribo Prot S235 236),HCT116,−94.82%
same,Avg(S6 Ribo Prot S240 244),HCT116,−95.1%
same,Avg(Tuberin TSC2 Y1571),HCT116,−9.4%
same,Avg(p70 S6 Kinase S371 S394),HCT116,−11.47%
same,Avg(p70 S6 Kinase T389 T412),HCT116,−24.73%
